Laboratory results: patent publication US12678454B2, “Bicarbonate as a potentiator for antimicrobial agents” (priority 2017, dated 2026)
Read-outs that look alike come from different tables or passages of the source. Marks after values point to notes of the source that are not given here. Bridge positions count the residues as written; N and C are the ends. Square brackets hold non-standard residues; d marks the D form. Peptide text beside a SMILES is read from it. * marks the point of attachment. Ileψ(thiazoline)Cys = CC[C@H](C)[C@H](N)C1=N[C@H](C(=O)*)CS1; dOrn = NCCC[C@@H](N)C(=O)O

Tests used:
[1] = test system: S. aureus (Strain Newman); assay: MIC determination (CLSI protocol) in MHB; assay type: cell-based, Staphylococcus aureus; details: for MIC, S. aureus, MHB−: MHB without sodium bicarbonate
Protocol: (§1) In the following experiments, bacterial cells were cultured in 96-well microtiter plates in cation-adjusted Mueller-Hinton Broth (MHB) for 18 h at 37° C. The main strains used in this study were E. coli (K-12 BW25113) (placed in stationary incubator) and S. aureus (Strain Newman) (incubated at 250 r.p.m). Knockout strains (ΔtolcC and ΔychM) were used from the Keio knockout collection (Baba, T. et al. Construction of Escherichia coli K-12 in-frame, single-gene knockout mutants: the Keio collection. Mol Syst Biol 2, 2006 0008, doi:10.1038/msb4100050 (2006)). For minimum concentration for inhibition (MIC) determination and checkerboard analyses, Clinical & Laboratory Standards Institute (CLSI) protocol was used. […] DiSC3 loading of S. aureus cells was performed as previously described (Farha, M. A., Verschoor, C. P., Bowdish, D. & Brown, E. D. Collapsing the proton motive force to identify synergistic combinations against Staphylococcus aureus. Chemistry & biology 20, 1168-1178, doi:10.1016/j.chembiol.2013.07.006 (2013)). CCCP concentration of 20 μM was used. pH adjustments were made by addition of HCl or NaOH. INT assay and ATP bioluminescence assays were performed as previously described (Farha, M. A., Verschoor, C. P., Bowdish, D. & Brown, E. D. Collapsing the proton motive force to identify synergistic combinations against Staphylococcus aureus. Chemistry & biology 20, 1168-1178, doi:10.1016/j.chembiol.2013.07.006 (2013)). For chemical-genomic studies, the Keio library was grown overnight in cation-adjusted MHB broth, in 384-well plates. From these, treatment plates (25 mM sodium bicarbonate, or a sterile water control) were inoculated and grown for 15 hours at 37° C., in a stationary incubator. Data was normalized according to Mangat et al (Mangat, C. S., Bharat, A., Gehrke, S. S. & Brown, E. D. Rank ordering plate data facilitates data visualization and normalization in high-throughput screening. J Biomol Screen 19, 1314-1320, doi:10.1177/1087057114534298 (2014)), with gene products and GO terms mined from EcoCyc. The GFP promoter library (Keseler, I. M. et al. EcoCyc: fusing model organism databases with systems biology. Nucleic Acids Res 41, D605-612, doi:10.1093/nar/gks1027 (2013)) was grown for 18 hours at ambient temperature with the same inoculation strategy as with the Keio collection. The analysis pipeline of Zaslaver et al (Zaslaver, A. et al. A comprehensive library of fluorescent transcriptional reporters for Escherichia coli. Nat Methods 3, 623-628, doi:10.1038/nmeth895 (2006)) was used to generate maps of promoter activity, from which lists of promoters with increased or decreased activity were compiled.

[2] = test system: E. coli (K-12 BW25113); assay type: cell-based, Escherichia coli; parameters: MIC, E. coli, MHB− / MIC, E. coli, MHB+: unit not given here
Protocol: as §1

[3] = fold enhancement of MIC with 25 mM sodium bicarbonate, negative = suppression

Compound	Fold, S. aureus [1]	MIC, S. aureus, MHB− [1]	Fold, E. coli [2]	MIC, E. coli, MHB+ [2]	MIC in MHB ([1]; S. aureus (strain Newman), MHB)	MIC in MHB + 25 mM bicarbonate ([1]; S. aureus (strain Newman), MHB + 25 mM sodium bicarbonate)	effect of physiological sodium bicarbonate on inhibitory activity ([2]; E. coli, 25 mM sodium bicarbonate)	Fold, S. aureus [1, 3]	Fold, E. coli [2, 3]
CN[C@@H]1[C@@H](O[C@H]2O[C@H](CO)[C@@H](N)[C@H](O)[C@H]2O)OC2C[C@@H](N)[C@@H](O[C@H]3[C@H](O)[C@@H](O)[C@H](N)C[C@@H]3N)OC2[C@@H]1O (some centres unmarked) [Apramycin]	0.5 fold	16 mg/L	4 fold	8					
NC[C@@H]1O[C@H](O[C@H]2[C@@H](O)[C@H](O[C@@H]3[C@@H](O)[C@H](N)C[C@H](N)[C@H]3O[C@H]3O[C@H](CO)[C@@H](O)[C@H](O)[C@H]3N)O[C@@H]2CO)[C@H](N)[C@@H](O)[C@@H]1O [Paromomycin]	1 fold	2 mg/L	2 fold	1					
CC[C@H](C)[C@H](N)C1=N[C@H](C(=O)N[C@@H](CC(C)C)C(=O)N[C@H](CCC(=O)O)C(=O)N[C@H](C(=O)N[C@H]2CCCCNC(=O)[C@H](CC(N)=O)NC(=O)[C@@H](CC(=O)O)NC(=O)[C@H](Cc3cnc[nH]3)NC(=O)[C@@H](Cc3ccccc3)NC(=O)[C@H]([C@@H](C)CC)NC(=O)[C@@H](CCCN)NC2=O)[C@@H](C)CC)CS1 [Bacitracin] ({Ileψ(thiazoline)Cys}-L[dE]IK[dOrn]I[dF]H[dD]N; lactam 4-C)	−2 fold	32 mg/L	1 fold	>256					
C[C@H]1COc2c(N3CCN(C)CC3)c(F)cc3c(=O)c(C(=O)O)cn1c23 [Levofloxacin]	−2 fold	0.5 mg/L	1 fold	0.0313					
CO[C@H]1/C=C/O[C@@]2(C)Oc3c(C)c(O)c4c(O)c(c(/C=N/N5CCN(C)CC5)c(O)c4c3C2=O)NC(=O)/C(C)=C\C=C\[C@H](C)[C@H](O)[C@@H](C)[C@@H](O)[C@@H](C)[C@H](OC(C)=O)[C@@H]1C [Rifampicin]	−4 fold	0.0078 mg/L	−2 fold	64					
C[C@H]1c2cccc(O)c2C(=O)C2=C(O)[C@]3(O)C(=O)C(C(N)=O)=C(O)[C@@H](N(C)C)[C@@H]3[C@@H](O)[C@@H]21 [Doxycycline]	−16 fold	0.125 mg/L	−4 fold	4					
Lysozyme					>256 ** μg/mL	>256 ** μg/mL	enhanced the inhibitory activity		
C[C@@H]1O[C@@H]1P(=O)(O)O [Fosfomycin]	−4 fold	16 mg/L	−4 fold	16					
CC1(C)S[C@@H]2[C@H](NC(=O)[C@H](N)c3ccccc3)C(=O)N2[C@H]1C(=O)O [Ampicillin]	−8 fold	1 mg/L	−2 fold	32					
Cc1onc(-c2ccccc2Cl)c1C(=O)N[C@@H]1C(=O)N2[C@@H]1SC(C)(C)[C@@H]2C(=O)O [Cloxacillin]	−16 fold	0.031 mg/L	1 fold	256					
CCn1cc(C(=O)O)c(=O)c2cc(F)c(N3CCNCC3)cc21 [Norfloxacin]	−2 fold	0.5 mg/L	2 fold	0.0625					
CCn1cc(C(=O)O)c(=O)c2ccc(C)nc21 [Nalidixic acid]	−4 fold	> 8 mg/L	−4 fold	8					
O=C(N[C@H](CO)[C@H](O)c1ccc([N+](=O)[O-])cc1)C(Cl)Cl [Chloramphenicol]	1 fold	8 mg/L	1 fold	8					
CC[C@H]1OC(=O)[C@H](C)[C@@H](O[C@H]2C[C@@](C)(OC)[C@@H](O)[C@H](C)O2)[C@H](C)[C@@H](O[C@@H]2O[C@H](C)C[C@H](N(C)C)[C@H]2O)[C@](C)(O)C[C@@H](C)[C@@H]2N[C@@H](COCCOC)O[C@H]([C@H]2C)[C@]1(C)O [Dirithromycin]	8 fold	4 mg/L	32 fold	4					
CC1(C)S[C@@H]2[C@H](NC(=O)[C@H](N)c3ccc(O)cc3)C(=O)N2[C@H]1C(=O)O [Amoxicillin]	−4 fold	0.25 mg/L	−2 fold	16					
CC(=O)NC[C@H]1CN(c2ccc(N3CCOCC3)c(F)c2)C(=O)O1 [Linezolid]	1 fold	0.625 mg/L	1 fold	256					
CCn1cc(C(=O)O)c(=O)c2cc(F)c(N3CCNCC3)nc21 [Enoxacin]	−2 fold	1 mg/L	2 fold	0.125					
CN[C@@H]1[C@H](O)[C@H](NC)[C@H]2O[C@@]3(O)C(=O)C[C@@H](C)O[C@H]3O[C@@H]2[C@H]1O [Spectinomycin]	8 fold	64 mg/L	4 fold	4					
CC[C@H]1OC(=O)[C@H](C)[C@@H](O[C@H]2C[C@@](C)(OC)[C@@H](O)[C@H](C)O2)[C@H](C)[C@@H](O[C@@H]2O[C@H](C)C[C@H](N(C)C)[C@H]2O)[C@](C)(O)C[C@@H](C)C(=O)[C@H](C)[C@@H](O)[C@]1(C)O [Erythromycin]		32 mg/L		32					
CN[C@H](CC(C)C)C(=O)N[C@H]1C(=O)N[C@@H](CC(N)=O)C(=O)N[C@H]2C(=O)N[C@H]3C(=O)N[C@H](C(=O)N[C@H](C(=O)O)c4cc(O)cc(O)c4-c4cc3ccc4O)[C@H](O)c3ccc(c(Cl)c3)Oc3cc2cc(c3O[C@@H]2O[C@H](CO)[C@@H](O)[C@H](O)[C@H]2O[C@H]2C[C@](C)(N)[C@H](O)[C@H](C)O2)Oc2ccc(cc2Cl)[C@H]1O [Vancomycin]		1 mg/L						−4 fold	1 fold
CO[C@@H]1[C@@H](OC(N)=O)[C@@H](O)[C@H](Oc2ccc3c(O)c(NC(=O)c4ccc(O)c(CC=C(C)C)c4)c(=O)oc3c2C)OC1(C)C [Novobiocin]	−16 fold	0.031 mg/L	−8 fold	>256					
